Tested on: NOMO1
Assay: cell viability relative to DMSO control; higher = less cytotoxic
Settings: 48 h
Method in brief: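 Viability is a per-plate percentage relative to DMSO wells, with cell-free wells as background. CellTiter-Glo One luminescence was read after 48 h at 37°C on 1536-well plates (5 μl) of NOMO1 or SEM (500 cells/well) or P12-Ichikawa (1000 cells/well) leukemia cells. The cells had been adapted for at least four passages in each medium and pin-dosed with library compounds in DMSO from 47 μM to 0.79 nM in 11 threefold steps.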

[1] = HPLM + 10% dialyzed FBS, 0.000781 µM
[2] = HPLM + 10% dialyzed FBS, 0.00234 µM
[3] = HPLM + 10% dialyzed FBS, 0.00702 µM
[4] = HPLM + 10% dialyzed FBS, 0.0211 µM
[5] = HPLM + 10% dialyzed FBS, 0.0632 µM
[6] = HPLM + 10% dialyzed FBS, 0.19 µM
[7] = HPLM + 10% dialyzed FBS, 0.569 µM
[8] = HPLM + 10% dialyzed FBS, 1.71 µM
[9] = HPLM + 10% dialyzed FBS, 5.12 µM
[10] = HPLM + 10% dialyzed FBS, 15.4 µM
[11] = HPLM + 10% dialyzed FBS, 46.1 µM
[12] = RPMI 5 mM glucose + 10% FBS, 0.000781 µM
[13] = RPMI 5 mM glucose + 10% FBS, 0.00234 µM
[14] = RPMI 5 mM glucose + 10% FBS, 0.00702 µM
[15] = RPMI 5 mM glucose + 10% FBS, 0.0211 µM
[16] = RPMI 5 mM glucose + 10% FBS, 0.0632 µM
[17] = RPMI 5 mM glucose + 10% FBS, 0.19 µM
[18] = RPMI 5 mM glucose + 10% FBS, 0.569 µM
[19] = RPMI 5 mM glucose + 10% FBS, 1.71 µM
[20] = RPMI 5 mM glucose + 10% FBS, 5.12 µM
[21] = RPMI 5 mM glucose + 10% FBS, 15.4 µM
[22] = RPMI 5 mM glucose + 10% FBS, 46.1 µM
[23] = RPMI 5 mM glucose + 10% dialyzed FBS, 0.000781 µM
[24] = RPMI 5 mM glucose + 10% dialyzed FBS, 0.00234 µM
[25] = RPMI 5 mM glucose + 10% dialyzed FBS, 0.00702 µM
[26] = RPMI 5 mM glucose + 10% dialyzed FBS, 0.0211 µM
[27] = RPMI 5 mM glucose + 10% dialyzed FBS, 0.0632 µM
[28] = RPMI 5 mM glucose + 10% dialyzed FBS, 0.19 µM
[29] = RPMI 5 mM glucose + 10% dialyzed FBS, 0.569 µM
[30] = RPMI 5 mM glucose + 10% dialyzed FBS, 1.71 µM
[31] = RPMI 5 mM glucose + 10% dialyzed FBS, 5.12 µM
[32] = RPMI 5 mM glucose + 10% dialyzed FBS, 15.4 µM
[33] = RPMI 5 mM glucose + 10% dialyzed FBS, 46.1 µM

Structure (SMILES)	cell viability [1] [%]	cell viability [2] [%]	cell viability [3] [%]	cell viability [4] [%]	cell viability [5] [%]	cell viability [6] [%]	cell viability [7] [%]	cell viability [8] [%]	cell viability [9] [%]	cell viability [10] [%]	cell viability [11] [%]	cell viability [12] [%]	cell viability [13] [%]	cell viability [14] [%]	cell viability [15] [%]	cell viability [16] [%]	cell viability [17] [%]	cell viability [18] [%]	cell viability [19] [%]	cell viability [20] [%]	cell viability [21] [%]	cell viability [22] [%]	cell viability [23] [%]	cell viability [24] [%]	cell viability [25] [%]	cell viability [26] [%]	cell viability [27] [%]	cell viability [28] [%]	cell viability [29] [%]	cell viability [30] [%]	cell viability [31] [%]	cell viability [32] [%]	cell viability [33] [%]
O=C(CCc1ccc(O)cc1)c1c(O)cc(O)cc1O	84.2	95.5	108	112	93.8	104	100	125	116	93	36.8	91.5	98.6	105	102	98	99.5	96.1	106	98.3	101	38.3	82.4	101	94.5	103	98.1	87.1	98.9	103	101	106	74.7
Cc1ccc(C(=O)Nc2cccc(C(F)(F)F)c2)cc1-c1ccc2nc(NCCN3CCOCC3)ncc2c1	128	122	111	118	118	126	117	108	50.7	29.5	10.8	115	106	125	113	123	114	116	103	57.3	32.7	10.3	129	116	115	124	118	113	114	102	54.2	33.4	11.6
N#C/C(=C\c1ccc(O)c(O)c1)C(=O)NCc1ccccc1	103	111	124	110	98.6	118	122	98.5	91.7	92.8	64.7	100	93.2	84.5	93.3	106	92.1	86.7	91.3	96.5	97.6	89	98	103	110	105	102	110	99.3	108	89.7	95.4	83.8
N[S+](=O)([O-])c1cc2c(cc1Cl)NC(C(Cl)Cl)N[S+]2(=O)[O-] (centres undefined)	96.9	107	113	117	111	135	136	130	121	125	124	105	96.1	105	107	102	103	123	108	102	125	110	112	114	109	118	112	118	120	126	125	141	120
C=C1C(=O)[C@@]23C(CC[C@@H]1[C@H]2O)[C@@]12CO[C@]3(O)[C@@H](O)[C@@H]1C(C)(C)CC[C@@H]2O (some centres undefined)	119	125	124	127	121	117	125	147	111	82	10.6	118	122	115	111	135	130	133	137	129	98.4	8.83	120	123	127	122	121	127	143	138	124	114	14
Cc1c(-c2cccc3c(CCCOc4cccc5ccccc45)c(C(=O)O)n(Cc4cccnc4)c23)c(COc2ccc(N3CCN([S+](=O)([O-])N(C)C)CC3)cc2)nn1C	88.7	85.4	83.8	94.1	108	86.3	85.9	74.2	89.2	73.8	55.4	92.5	97.3	80.4	85.7	87.9	94.7	90.5	87.8	74.9	79.3	85.2	97	97.1	92.5	96.1	95.9	94.1	86	76.7	81.4	84.7	72.5
O=C(O)CCCCC(CCSCc1ccccc1)SCc1ccccc1 (centres undefined)	109	104	105	117	124	115	118	135	110	86	28.7	108	112	115	113	121	114	107	102	109	100	39.1	122	116	124	123	120	134	131	129	112	99.9	55.5
Cc1ccccc1C(OCCN(C)C)c1ccccc1 (centres undefined)	102	117	145	138	135	143	142	122	116	125	57.5	121	112	120	120	120	115	125	125	127	117	116											
CC(C)N(C[C@H]1O[C@@H](n2cnc3c(N)ncnc32)[C@H](O)[C@@H]1O)[C@H]1C[C@@H](CCc2nc3cc(C(C)(C)C)ccc3[nH]2)C1	96.9	98.5	111	109	110	109	113	79.3	36.1	65.5	7.55	84	92.4	113	91.5	91.8	115	94.9	113	99.1	93.3	9	74.4	95.6	97.2	91.8	95.3	103	102	99.9	86.6	96.1	6.04
N#Cc1ccc(Oc2ccc3c(c2)COB3O)cc1												122	132	119	120	150	137	144	126	133	129	57.3											
CCN1C[C@H](C)[N]2C(=C(O)C3=C2\C(=N/N(CC4=CC=C(F)C(=C4)Cl)C3=O)C(=O)NC)C1=O	107	125	118	126	120	131	98.2	92.5	96.5	58	11.9	107	98.3	111	111	104	96	97.7	99.2	96.3	80.3	11.4	106	115	107	121	118	98.4	102	111	92.6	65.6	13.9
N[C@H]2CN(CC12CC1)c3c(F)cc4c(c3Cl)[N@@](C=C(C4=O)C(=O)O)C5C[C@H]5F (some centres undefined)	98.5	110	98.1	102	98.2	89.5	83.2	84	94	50.4	92.1	83.7	92	89.1	78.6	90.2	83.5	72.1	82	75.2	48.4	97.1	76.7	91	91.2	94.9	98.1	86.5	81.9	91.3	89.8	69	77
CCn1c(-c2nonc2N)nc2c(C#CC(C)(C)O)ncc(OC[C@H]3CCCNC3)c21	91.3	88.8	80	96	73.4	75.8	71.9	61.7	70.3	71.7	48	80.8	82.5	84.1	84.1	79.8	87.3	81	83.5	82	84.1	49.3	77.2	96.1	86.8	93.7	80.6	84.3	74.4	82	74.2	79.2	68.2
C[C@]12Cc3cn[nH]c3C[C@@H]1CC[C@@H]1[C@@H]2CC[C@@]2(C)[C@H]1CC[C@]2(C)O												97.1	102	100	105	106	103	109	112	100	92.4	90.7	102	119	122	120	114	105	103	92.8	95.3	109	96.3
O=C1CCC[C@@H]2[C@H]3CCCN4CCC[C@@H](CN12)[C@@H]34	59.1	68.9	78.1	87.1	87.2	94.8	38.3	93.2	26.6	25.3	13.6	79	92.2	84.6	86.8	85.2	90.9	55.3	85.2	17.2	13.9	7.48	66.1	79.6	90.2	82.9	86	93.6	69.3	77.8	19.1	18.6	10.8
COc1cc([C@@H](CC(=O)O)c2ccc(C)c(CN3C[C@@H](C)Oc4ccccc4[S+]3(=O)[O-])c2)cc2nnn(C)c12	123	120	111	121	110	118	96.8	119	66.6	30.3	26.5	114	117	117	98.7	97.1	102	104	99.3	92.4	90.3	91.1	102	118	116	104	113	99.5	100	101	86.2	79.6	75.4

From the supplement of paper PMC11451515
